Data from publication PMC6895912 (Cancers, 2019).
Entries after “also recorded” stand apart in the source; their conditions may differ.

Legend:
CWR22Rv1 xenografts = assay: Antitumor efficacy in castration-resistant CWR22Rv1 xenograft model; format: in vivo, male NOD SCID mice; conditions: 25 mg/kg PO once daily, 16 days; listed as ENZ
Experimental: Following the in vitro studies and determination of the PK parameters, we then investigated the relative efficacy. Gal and the NGGAs in vivo using difficult-to-treat castration-resistant CWR22Rv1 xenografts. Given the enhanced IP and PO PK parameters of VNPP414 and VNPP433-3β over Gal, we decided to use lower doses of the new analogs compared to the previous Gal doses (200 mg/kg, IP/PO). Gal (200 mg/kg) served as positive control, while ENZ (25 mg/kg) administered PO was used as negative control. Male NOD SCID mice bearing CWR22Rv1 tumors were treated with vehicle, ENZ, Gal, VNPP414, and VNPP433-3β for 16 days as described in the Methods and Materials Section. […] In contrast, Gal and the NGGAs caused statistically significant tumor growth inhibition (TGI). […] It is notable that VNPP433-3β (at 7.5- and 15-fold lower molar doses) and VNPP414 (at 4-fold lower molar dose) are more efficacious than Gal. In general, no host toxicities were observed, as monitored by changes in animal body weight (Figure 7C).
Figure 7 Effects of Gal, NGGAs and ENZ in an in vivo castration-resistant prostate cancer model. (A) Mice bearing CWR22Rv1 xenografts (5 mice per group) were treated with vehicle, Gal (100 mg/kg/twice daily), VNPP414 (60 mg/kg, once daily), VNPP433-3β (15 or 30 mg/kg, once daily) and ENZ (25 mg.kg, once daily) 5 days per week for 16 days. Tumor volumes were measured twice a week and the tumors were collected. Tumor growth inhibition (TGI) values are indicated at the right of each growth curve, and the error bars are the SEM. Results are represented as means ± SEM. ^# p = ns (not significant vs. vehicle), ^$ p < 0.0272 vs. vehicle, * p < 0.0035 vs. vehicle, ** p < 0.0025 vs. vehicle and *** p < 0.0008 vs. vehicle. (B) Photographed tumors from each group. (C) Mean body weights of mice determined during the study. (D) Western blot analyses of tumor samples from each experimental group at day 16. […] It is left out because vehicle is a control, not a substance.
Male NOD SCID mice 5–6 weeks of age were obtained from University of Maryland School of Medicine Veterinary Resources (Baltimore, MD, USA. Mice were housed under complete aseptic conditions, fed autoclaved pellets and sterile water ad libitum. Following a week of acclimatization, approximately 5 × 10^6 CWR22Rv1 cells were inoculated one flank f mice. Tumor-bearing mice (tumor volume around ~100 mm^3) were randomized into 6 groups (5 mice in each group; compounds formulated in vehicle) and treated as follows: (i) vehicle control (40% β-cyclodextrin in saline, PO.), (ii) ENZ (25 mg/kg, PO, once daily), (iii) Gal (100mg/kg, PO, twice daily), (iv) VNPP414 (60 mg/kg, PO, once daily), (v) VNPP433-3β (15 mg/kg, PO, once daily), and (vi) VNPP433-3β (30 mg/kg, PO, once daily) for 5 days/week. Tumors were measured twice weekly with calipers and tumor volume was calculated by the formula: length × width^2 × 0.5 (mm^3). Animals were also weighed weekly and monitored for general health status and signs of possible toxicity due to treatments. Mice were sacrificed after the indicated periods of treatment and tumors excised. Tumors were divided and either flash frozen in liquid nitrogen or placed in 10% buffered formalin for western blot analysis.

[1] = system: CWR-R1, CWR-R1 (10E), CWR-R1-MTX20nM cells; assay: Colony formation (clonogenicity) assay; format: cell-based, human; conditions: parental CWR-R1 and drug-resistant counterparts, 14 days
Source text: (A) Comparative GI50 values of Gal, NGGAs, and enzalutamide (ENZ) in drug-naïve-/-resistant prostate cancer cells. (B) Gal and NGGAs induce G1 cell cycle arrest in LNCaP cells. (C) VNPP414 and VNPP433-3β deplete the cell cycle regulator, cyclin D1, and upregulate p21; “+” indicates specific treatments. (D) Gal cause dose-dependent depletion of cyclin D1. (E) Unlike ENZ, Gal and VNPP433-3β inhibit colony formation of drug-naïve/-resistant cells in vitro. 1000 cells/well (CWR-R1, CWR-R1 (10E), CWR-R1-MTX20nM), seeded in 6-well plates were treated with indicated concentrations of compounds for a period of 14 days. Media containing compounds were replaced every 3 days. Colonies were stained with 0.05% crystal violet. (F) Quantification of colony formation units (CFU) in drug-naive/resistant cells. Colony assays were repeated three times and colonies counted in four quadrants of the wells. Results are represented as averages with S.E.M. (* p < 0.05, ** p < 0.001). Note: the numbers in parentheses in Figure 2B,C,E are concentrations of the agents in µM.
0.1 × 10^3 cells per well were seeded in 6-well plates and allowed to attach overnight (16 h), cells were treated with compounds in regular media (RPMI with 10% FBS) at the indicated concentrations and replaced every 3rd day for 14 days or until visible colonies could be counted. Colonies were washed and stained with 0.05% crystal violet for 30 min. Colonies were scanned and quantified (colonies counted in four quadrants of each well) with ImageJ colony counter. Results are represented as the mean of triplicates.

SMILES: CNC(=O)c1ccc(N2C(=S)N(c3ccc(C#N)c(C(F)(F)F)c3)C(=O)C2(C)C)cc1F [Enzalutamide, reference compound]
- tumor volume versus vehicle-treated control (in words) (CWR22Rv1 xenografts): ineffective; also recorded: no statistically significant difference
- inhibition of colony formation [1]: ineffective at the concentrations tested
